Peptide text beside a SMILES is read from it.
What was measured:
[1] = tested on: medial septum/vertical limb of the diagonal band (S/DB); assay: Histology of septal region after injection into S/DB; format: in vivo, rat; details: for histological appearance of the septal area: 2 μl of 33 mM into S/DB, Example 2
Procedure: (§1) The experimental group (n=6 rats) received an injection of AChE peptide into the medial septum/vertical limb of the diagonal band (S/DB). Control rats (n=6 rats) received an equal amount of the vehicle, water, in the same way, while another group (n=5 rats) received an injection of the reference neurotoxin NMDA at an equivalent dose to that of AChE peptide (2 μl of 33 mM). Each injection was given slowly over 15 minutes through a 34 gauge stainless steel injection needle coupled by polyethylene tubing to a 10 μl Hamilton syringe. Co-ordinates used on the stereotaxic instrument (Kopf) were 0.7 mm anterior to bregma, 1.0 mm lateral to midline and 6.5 mm from skull surface at bregma. The incisor bar was set at −0.5 mm for all rats, resulting in approximately a level skull surface between the bregma and lambda sutures. The arm of the stereotaxic instrument was angled at 10 degrees to vertical to avoid damage to the sagittal sinus.
After a final weighing, rats were killed by stunning followed by decapitation. The hippocampus and cingulate/secondary motor cortex were rapidly removed and stored frozen at −80 degrees Celsius. The block of brain anterior to the hippocampus was placed in 30% sucrose formalin and left to fix for at least a week prior to sectioning on a microtome and staining with cresyl violet. Microscopical brain examination was subsequently performed as in earlier experiments.
Wistar rats were anaesthetised and injected as described in Example 2, with one of the following. AChE peptide, the equivalent peptide from BuChE, a scrambled version of the AChE peptide: HSWRAEVFHKYWSM, NMDA and water as a control. The number of rats in each group was between four and five.
Brain examination was performed as described in Example 2.

[2] = Body weight and condition after high-dose hippocampal injection; format: in vivo, rat; details: higher dose (68 mM, 1 μl) into hippocampus, one of two rats, 5 days after surgery
Procedure: (§2) Since the concentration of NMDA used to produce experimental neural destruction (as a tool in experimental psychology to examine the function of a particular brain region) is much higher (typically 68 mM) a small number of rats were injected with this larger amount, in a volume of 1 μl, in comparison with an equivalent amount of AChE peptide.
One of the two rats given AChE peptide at this higher dose looked very sick 5 days after the surgery and was therefore deeply anaesthetised and the brain prepared for microscopy. […] The other rat survived 11 days until it was finally anaesthetised, but it too lost some weight. This supported informal observations from the earlier, low dose experiment that AChE peptide treated rats might lose more weight than is normal after such surgery.

mice = assay: Injection of AChE peptide into mice; format: in vivo
rat hippocampus = assay: Direct injection into rat hippocampus, histological effects (length of hippocampal cell layers destroyed); format: in vivo; details: for extent of hippocampal damage: 68 mM in a volume of 1 μl into hippocampus
Procedure: AChE peptide was injected into rat hippocampus and subsequently the brains were examined under a light microscope. The hippocampus was-chosen as the most suitable brain structure in which to show effects of AChE peptide as it is very vulnerable to neurotoxins and damage from other causes such as ischaemia. Post mortem histological. examination or pre mortem brain scans reveal prominent decay of the hippocampus in Alzheimer brains.
Male Wistar or Dark Agouti (DA) rats were anaesthetised with Avertin and injected with 0.5 μl of 2 mM AChE peptide (DA rats received 1 μl of 1 mM) in the right hippocampus. An equivalent control injection was made in the left hippocampus. After recovery from the anaesthetic and a few days in their home cages rats were deeply anaesthetised and transcardially perfused with formalin preservative, the brains removed and prepared for microscopical examination. Sections of 50 μm were cut on a sliding microtome and stained with cresyl violet to show the nerve cells. The amount of neural damage was estimated by counting the length of hippocampal cell layers destroyed (quantified in terms of microscope graticule units).
A small number of injections were made into the hippocampus of DA rats with the reference neurotoxin NMDA (N-methyl D-aspartic acid) at an equivalent concentration to that of AChE peptide used above (1 μl of 1 mM).
as §2

[3] = Post-operative body weight after injection into S/DB; format: in vivo, rat; details: 2 μl of 33 mM into S/DB, Wistar rats, weighed daily
Procedure: as §1
Post-operatively the rats were weighed every day. Approximately two weeks after operation they were again food restricted and tested for performance on the T-maze.

[4] = tested on: medial septum/vertical limb of the diagonal band (S/DB); assay: Locomotor activity cages after injection into S/DB; format: in vivo, rat; details: 2 μl of 33 mM into S/DB, two successive days
Procedure: as §1
After completion of T-maze testing rats were returned to a free feeding regimen before being tested on two successive days in standard locomotor activity cages. Each cage was equipped with two infrared beams to detect movement.

[5] = tested on: nucleus basalis of Meynert (NBM); assay: Serial choice reaction task (attention) after injection into NBM; format: in vivo, rat; details: bilateral 2 μl of 16.5 mM into NBM, light stimulus 1.0 s
Procedure: Testing for loss of cognitive function reminiscent of loss of such function associated with Alzheimer's Disease in humans was carried out using a serial choice reaction task, a preferred form of task for testing for attentional deficits, as described by Higgs et al. (Higgs, S., Deacon, R. M. J. & Rawlins, J. N. P., European Journal of Neuroscience (2000)12, 1781-1788).
A rat testing cubicle with a retractable lever on the front wall was employed as illustrated in FIG. 11. The back wall was concave with three food magazines, one in each corner and one in the centre. A light was present within each corner magazine. Magazine entries were recorded by microswitches attached to panels covering the entrances. The entire apparatus was computer-controlled.
Rats are trained to press the lever when it is presented. […] The rat will find a reward (a 45 mg food pellet) respectively in the left, right or centre magazine tray.
A cohort of rats were trained on the attentional task (light stimulus duration 1.0 s). When performance was stable, they were divided into three matched groups, each with seven or more rats. Under deep anaesthesia, each rat was placed in a stereotaxic frame, with the incisor bar set at −3 mm to give a level head. Bilateral-injections, each of 2 μl, were made into the NBM area (see FIG. 13). The control group of rats received injections of water. […]

[6] = tested on: medial septum/vertical limb of the diagonal band (S/DB); assay: Delayed non-matching to sample (DNMS) T-maze task after injection into S/DB; format: in vivo, rat; details: 2 μl of 33 mM into S/DB
Source text: Wistar rats (175-200 g) were received from the suppliers (Harlan UK) and acclimated to the laboratory for three weeks before being trained on a delayed non-matching to sample (DNMS) task on an elevated wooden T-maze. In this task they are mildly food deprived and receive food pellets with enhanced flavour and nutritional content as rewards.
The DNMS task capitalises on the rat's innate tendency to alternate which cross arm of the T-maze it runs along; this derives from its normal foraging behaviour, where returning to a place from which it has recently eaten all the food is unlikely to pay dividends.
Each rat is placed at the start of the stem of the T-maze and allowed to run to retrieve a food pellet at the end of one cross arm. Access to the other cross arm is blocked. This block is then removed and the rat returned to the start. Normal rats choose to go to the opposite arm to that recently visited on this free choice part of the trial. After being allowed to consume their reward (if a correct choice was made) they are returned to their home cage and their cagemate is then tested in the same way. Typically a squad of ten rats is run in a “round robin’ fashion, so up to fifteen minutes intervenes between one trial and the next. Normal rats excel at this task once initial training (chiefly to familiarise them with the new smells on the maze and the elevated position off the floor) is complete.
The rats in the present experiment were given forty trials on the T-maze, then divided into groups matched for performance (all were above 90% correct). They were returned to unlimited food for a few days before undergoing surgery under Avertin anaesthesia.
The experimental group (n=6 rats) received an injection of AChE peptide into the medial septum/vertical limb of the diagonal band (S/DB). Control rats (n=6 rats) received an equal amount of the vehicle, water, in the same way, while another group (n=5 rats) received an injection of the reference neurotoxin NMDA at an equivalent dose to that of AChE peptide (2 μl of 33 mM). […]

[7] = tested on: choline acetyltransferase; assay: Cortical choline acetyltransferase (ChAT) level after NBM lesion; format: in vivo, rat; details: bilateral 2 μl of 16.5 mM into NBM
Procedure: After a period of post-operative testing, the rats were terminally anaesthetised and perfused intracardially with ice cold saline. The brain was removed and a portion of cortex (including the frontal, parietal and temporal areas, but excluding visual and cingulate cortex) was removed from each hemisphere and frozen. The remaining brain was preserved in formalin and subsequently coronally sectioned and stained with cresyl violet. The position and extent of the lesions was then determined by microscopical examination.
The frozen cortical tissue was used to determine the effectiveness of the NBM lesion. Using the method of Fonnum (J. Neurochem. (1975) 24, 407-409), the levels of the acetylcholine synthesising enzyme, choline acetyltransferase, (ChAT) were measured.
Since a proportion of this enzyme is due to the cholinergic innervation from the NBM, a decrease of ChAT would corroborate visualisation of a lesion at the site of injection in the NBM itself.

SMILES	histological appearance of the septal area [1]	tissue loss in the medial septal region ([1]; Example 3, Wistar rats injected as in Example 2)	lesion size relative to NMDA ([1]; S/DB region)	time for lesion to form after introduction into S/DB ([1]; S/DB region, time course by MRI)	body weight after surgery [2]	neurotoxic effects in mice (mice)	extent of hippocampal damage (rat hippocampus)	mean units of damage (length of hippocampal cell layers destroyed) (rat hippocampus; Wistar rats, 0.5 μl of 2 mM in right hippocampus, P=0.008 vs control side) [units]	units of damage (length of hippocampal cell layers destroyed, microscope graticule units) (rat hippocampus; most symmetrically injected DA rat, 1 μl of 1 mM in right hippocampus) [units]	post-operative weight loss and recovery [3]	locomotor activity (ANOVA, group effect) [4]	proportion of correct lever-light trials [5]	histological examination of hippocampal brain sections (rat hippocampus; DA rats, 1 μl of 1 mM into hippocampus)	T-maze performance in subsequent trials ([6]; after first block of ten trials)	T-maze performance with 45 second delay between sample and choice ([6]; delay about 45 s)	T-maze performance, twenty massed trials ([6]; massed trials)	cholinergic loss in the cortex as measured by HPLC ChAT level [7] [%]
CSCC[C@H](NC(=O)[C@H](Cc1ccc(O)cc1)NC(=O)[C@H](CO)NC(=O)[C@H](CO)NC(=O)[C@H](Cc1c[nH]c2ccccc12)NC(=O)[C@H](CCCNC(=N)N)NC(=O)[C@H](Cc1c[nH]cn1)NC(=O)[C@H](Cc1ccccc1)NC(=O)[C@H](CCC(=O)O)NC(=O)[C@H](C)N)C(=O)N[C@H](C(=O)N[C@@H](Cc1c[nH]cn1)C(=O)N[C@@H](Cc1c[nH]c2ccccc12)C(=O)N[C@@H](CCCCN)C(=O)O)C(C)C [AChE peptide, AEFHRWSSYMVHWK] (H-AEFHRWSSYMVHWK-OH)	striking damage	Significant tissue loss	an order of magnitude larger	less than an hour	Severe body weight loss	Neurotoxic effects have also been observed	local hippocampal damage	155.3	119	statistically significantly slower than either controls or NMDA rats to recover their weight	–	–	–	–	–	–	–
CN[C@H](CC(=O)O)C(=O)O [NMDA, N-methyl D-aspartic acid]	only small effects	–	–	–	–	–	more widespread	–	–	lost more weight than controls	not significantly different	didn't produce a significant reduction	small areas of neural damage	returned to control levels	non-significant decrease	little effect	12.1
